# Reference: patent US11413278B2, “Compounds and methods for promoting stress resistance” (priority 2015, dated 2022)
# Where two headings read alike, the source gives them in different places.
# Assays:
# [1] = system: WI-38 cells; test: Propidium iodide (PI) cell-death imaging upon H2O2 stress; assay type: cell-based, human; conditions: for Assay 7: H2O2-resistant, at 10 uM, validated by propidium iodide (PI) cell-death imaging: w/H2O2, 3 hrs/4 hrs/5 hrs, YES/NO; for cytotoxicity at 10 µM: Homo sapiens, WI-38
# [2] = Summary score for characterization of 38 core set hits; conditions: for D = Triple resistant: 2-point score, multiplex resistance (cadmium, MMS, H2O2); for C = H2O2- & Cd-resistant: score, resistance to both H2O2 and cadmium
# Procedure: 38 “core set” small molecules are listed and are assigned a score, based on the result for each individual characterization. From our small molecule screen for H2O2-resistance, we isolated 61 top hits. […] Specifically, a 2-point score was assigned to the most well-known and prominent longevity-related phenotypes, such as multiplex resistance, activation of FOXO3 and/or NRF2, and down-regulation of mTOR. Small molecules were also analyzed for their ability to extend C. elegans' lifespan in 4 to 6 independent trials, and the lifespan score scale is from 0 to 2: 0 for no obvious effects, 1 for lifespan extension observed in 2 trials, 2 for observed in more than 2 trials. Certain molecules appeared to have DNA-damaging effects and/or potential cell-toxicity in cultured human cells, and they receive a negative point.
# [3] = system: WI-38 cells; test: Long-term effects on cell viability (5 days, ATP; morphology, PI imaging); assay type: cell-based; conditions: 10 μM; for O = Potential toxicity / Q = Potential toxicity: human, 5 days; for Luminescence signal for ATP measurement, day-1 Average / Luminescence signal for ATP measurement, day-2 Average / Luminescence signal for ATP measurement, day-3 Average / Luminescence signal for ATP measurement, day-4 Average / Luminescence signal for ATP measurement, day-5 Average / viability at 10 µM: Batch 1; for Luminescence signal for ATP measurement, day-1 Average / Luminescence signal for ATP measurement, day-2 Average / Luminescence signal for ATP measurement, day-3 Average / Luminescence signal for ATP measurement, day-4 Average / Luminescence signal for ATP measurement, day-5 Average: n = 6, day-0 luminescence = 320956 ± 24708; for viability at 10 µM: Homo sapiens, WI-38, 120 h, DMSO ctrl = 100.0%, read-out: ATP luminescence by day-5 normalized; for Luminescence signal for ATP measurement, day-5 Average / viability at 10 µM: day-5;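 for Luminescence signal for ATP measurement, day-2 Average: compounds at 10 µM with ATP read daily over 5 days of treatment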;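 for Luminescence signal for ATP measurement, day-3 Average: compounds at 10 µM with ATP read daily over 5 days of treatment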;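 for Luminescence signal for ATP measurement, day-4 Average: compounds at 10 µM with ATP read daily over 5 days of treatment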;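 for Luminescence signal for ATP measurement, day-5 Average: compounds at 10 µM with ATP read daily over 5 days of treatment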
# [4] = system: human dermal fibroblast (HDF) primary cells; test: H2O2-resistance in primary human dermal fibroblasts; assay type: cell-based; conditions: for fold induction at 10 µM: Homo sapiens; for Assay 6: H2O2-resistant, at 10 uM, human dermal fibroblast (HDF) primary cells: YES/NO
# [5] = system: NRF2; test: qPCR analysis of NRF2-regulated genes; assay type: cell-based, human; conditions: for fold induction at 10 µM: Homo sapiens
# Summary of the method: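 Expression of HMOX1, NQO1, GCLC and GSTM1 measured by qPCR relative to B2M, PPIA and GAPDH. Cells were WI-38 fibroblasts exposed 24 hrs to 10 μM compound, with RNA and cDNA prepared via Cells-to-Ct. Where stated, cells were first transfected 36 hrs with FOXO3 or NRF2 siRNA at 10 nM.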
# [6] = H2O2 3 hrs, 10 uM, n = 6, negative control 5.44% ± 0.79%, read-out: Percentage of propidium iodide-positive dead cells (under H2O2 stress treatment), 3 hrs
# [7] = pre-treatment at 10 uM, 3.5 hours of H2O2, DMSO control 27.4% ± 6.5%, */**/*** = reduced by one/two/three standard deviations, read-out: Percentage of propidium iodide-positive dead cells (under H2O2 stress treatment), at 10 uM
# [8] = Experiment 1, HDF cells, read-out: Experiment 1, HDF cells (under H2O2 stress treatment), at 10 uM (fold change)
# [9] = Experiment 2, HDF cells, read-out: Experiment 2, HDF cells (under H2O2 stress treatment), at 10 uM (fold change)
# [10] = 24 h, Assay 12(o), at 10 uM, qPCR, read-out: Induction of NRF2-regulated genes: HMOX1 normalized fold-change
# [11] = 24 h, Assay 12(o), at 10 uM, qPCR, read-out: Induction of NRF2-regulated genes: NQO1 normalized fold-change
# [12] = rounded fold change, WI-38 cells, 10 μM, 24 hrs (RP11 for Gr-1D, RP29 for Gr-4D), read-out: Summary of effects on NRF2-regulated genes: HMOX1
# [13] = rounded fold change, WI-38 cells, 10 μM, 24 hrs (RP29 for Gr-4D), read-out: Summary of effects on NRF2-regulated genes: NQO1
# [14] = 10 μM, 24 hrs, WI-38 cells, qPCR, normalized to B2M, n = 4, read-out: HMOX1 expression, normalized fold change (NRF2-regulated gene)
# [15] = 10 μM, 24 hrs, WI-38 cells, qPCR, normalized to B2M, n = 4, read-out: NQO1 expression, normalized fold change (NRF2-regulated gene)
# [16] = WI-38 cells, 10 μM, 24 hrs, n=4, qPCR normalized by B2M, read-out: GCLC Normalized fold change
# [17] = WI-38 cells, 10 μM, 24 hrs, n=4, qPCR normalized by B2M, read-out: GSTM1 Normalized fold change
# [18] = WI-38 cells, 10 μM, 24 hrs, n=4, qPCR normalized by B2M, read-out: HMOX1 Normalized fold change
# [19] = WI-38 cells, 10 μM, 24 hrs, n=4, qPCR normalized by B2M, read-out: NQO1 Normalized fold change
# [20] = H2O2 4 hrs, 10 uM, n = 6, negative control 16.81% ± 1.42%, read-out: Percentage of propidium iodide-positive dead cells (under H2O2 stress treatment), 4 hrs
SMILES,"Assay 7: H2O2-resistant, at 10 uM, validated by propidium iodide (PI) cell-death imaging ([1]; 10 uM)","cytotoxicity at 10 µM [1, 6] [%]","cytotoxicity at 10 µM [1, 7] [%]",D = Triple resistant [2],C = H2O2- & Cd-resistant [2],O = Potential toxicity [3],Q = Potential toxicity [3],"fold induction at 10 µM [4, 8]","fold induction at 10 µM [4, 9]","Assay 6: H2O2-resistant, at 10 uM, human dermal fibroblast (HDF) primary cells [4]",F = Potential NRF2 Activation ([5]; 2-point score),"fold induction at 10 µM [5, 10]","fold induction at 10 µM [5, 11]","fold induction at 10 µM [5, 12]","fold induction at 10 µM [5, 13]","fold induction at 10 µM [5, 16]","fold induction at 10 µM [5, 17]","fold induction at 10 µM [5, 18]","fold induction at 10 µM [5, 19]",F = Potential NRF2 Activation ([5]; summary score),further results
COc1ccc(C(=O)/C=C/c2ccccc2Br)c(OC)c1 [Gr-4B],YES,3.31,3.4,0,1,0,0,13.7,55.6,YES,2,4.51,2.36,4.51,2.36,1.15,1.15,4.51,2.36,2,"S = Sum of Negative scores ([2]; sum of columns Q and R): 0; Potential NRF2 Activation (>=2 target genes induced, by >=1.5-fold) ([5]; Assay 13(p)): YES; fold induction at 10 µM ([5]; 10 μM, 24 hrs, WI-38, read-out: Expression of at least two NRF2 target genes): > 1.5; fold induction at 10 µM [5, 14]: 4.51; fold induction at 10 µM [5, 15]: 2.36"
COc1cccc(/C=C2\CN(C)C/C(=C\c3cccc(OC)c3OC)C2=O)c1OC [O23],YES,5.65,10.2,0,0,1,1,1.68,52.4,YES,0,12.9,0.48,12.9,0.48,0.668,0.595,12.9,0.477,0,"cytotoxicity at 10 µM [1, 20]: 4.76%; cytotoxicity at 10 µM ([1]; H2O2 5 hrs, 10 uM, n = 6, negative control 22.50% ± 1.53%, read-out: Percentage of propidium iodide-positive dead cells (under H2O2 stress treatment), 5 hrs): 8%; S = Sum of Negative scores ([2]; human): 1; Luminescence signal for ATP measurement, day-1 Average [3]: 329880; Luminescence signal for ATP measurement, day-2 Average [3]: 149226; Luminescence signal for ATP measurement, day-3 Average [3]: 52831; Luminescence signal for ATP measurement, day-4 Average [3]: 53125; Luminescence signal for ATP measurement, day-5 Average [3]: 52771; viability at 10 µM [3]: 5.1%; fold induction at 10 µM ([5]; 24 h, Assay 12(o), at 10 uM, qPCR, read-out: Induction of NRF2-regulated genes: GCLC normalized fold-change): 0.67; fold induction at 10 µM ([5]; 24 h, Assay 12(o), at 10 uM, qPCR, read-out: Induction of NRF2-regulated genes: GSTM1 normalized fold-change): 0.6; fold induction at 10 µM ([5]; rounded fold change, WI-38 cells, 10 μM, 24 hrs (RP29 for Gr-4D), read-out: Summary of effects on NRF2-regulated genes: GSTM1): 0.6; fold induction at 10 µM ([5]; rounded fold change, WI-38 cells, 10 μM, 24 hrs, read-out: Summary of effects on NRF2-regulated genes: GCLC): 0.67; fold induction at 10 µM ([5]; 10 μM, 24 hrs, WI-38 cells, qPCR, normalized to B2M, n = 4, read-out: GCLC expression, normalized fold change (NRF2-regulated gene)): 0.67; fold induction at 10 µM ([5]; 10 μM, 24 hrs, WI-38 cells, qPCR, normalized to B2M, n = 4, read-out: GSTM1 expression, normalized fold change (NRF2-regulated gene)): 0.6; fold induction at 10 µM [5, 14]: 12.9; fold induction at 10 µM [5, 15]: 0.48"
O=C(Nc1nc(C23CC4CC(CC(C4)C2)C3)cs1)C(c1ccccc1)c1ccccc1 [O10],YES,2.19,3.6,0,1,0,0,12.6,8.91,YES,0,–,–,–,–,0.933,1.03,0.755,0.937,0,"cytotoxicity at 10 µM [1, 20]: 4.27%; S = Sum of Negative scores ([2]; human): 0; Luminescence signal for ATP measurement, day-1 Average [3]: 560153; Luminescence signal for ATP measurement, day-2 Average [3]: 740923; Luminescence signal for ATP measurement, day-3 Average [3]: 847945; Luminescence signal for ATP measurement, day-4 Average [3]: 1079863; Luminescence signal for ATP measurement, day-5 Average [3]: 1066130; viability at 10 µM [3]: 104%"
